These results are taken from patent US20240316196A1, “METHODS AND COMPOSITIONS FOR DIFFERENTIATION OF PLURIPOTENT STEM CELLS AND DERIVED NATURAL KILLER CELLS” (NUWACELL BIOTECHNOLOGIES CO., LTD., priority 2022, published 2024).

In series [1] the test system is iNK cells. The experiment in a line: Stage 3 expansion and maturation of immature iNK cells co-cultured with feeder cells. In kind it is cell-based, human. Particulars: IL-18 (10-50 ng/mL) with IL-2 (100 IU/mL) in Stage 3 vs IL-2 only, Day 14 of co-culture (FIG. 13B). As for the experimental part: (§1) hiPSCs were prepared as described in CN108373998B. On Day −1, Embryoid body (EB) formation (Stage 1-1) was carried out by placing individualized hiPSCs in E8 medium containing 10 μM Blebbistatin in T25 flasks on a bellydancer and culture overnight. On Day 0, lateral mesoderm differentiation (Stage 1-2) was initiated by changing the medium to a Stage 1-2 differentiation medium comprising IF-4 basal medium and supplemented with BMP4 (25 ng/mL), VEGF (15 ng/mL), bFGF (0.5 ng/mL) and CHIR99021 (4 μM) for 2 days. On Day 2, lateral mesoderm differentiation (Stage 1-3) continued for 1 day in a Stage 1-3 differentiation medium comprising IF-4 basal medium and supplemented with BMP4 (25 ng/mL), VEGF (15 ng/mL) and bFGF (0.5 ng/mL) and CHIR99021 (1 μM). On Day 3, HE specification (Stage 1-4) was initiated by adding a Stage 1-4 differentiation medium comprising IF-4 basal medium and supplemented with VEGF (15 ng/mL), bFGF (5 ng/mL), XAV939 (5 μM) for 1 day. […] On Day 14 of co-culture, iNK cells were collected and stained with CD56-PE antibody (BD, #555516), and the percentage of CD56+ cells was analyzed by flow cytometry.
hiPSCs were prepared as described in CN108373998B. […] D-1 and DO cells were analyzed by Microscopy. […] At the end of Stage 1-4, cells were analyzed by Microscopy and FACS. […] At the end of Stage 1-5, cells were analyzed by Microscopy and FACS. […]

The subject of series [2] is K562 cells. The experiment in a line: Cytotoxicity of Stage 3 iNK cells towards K562 cells (CFSE/7AAD assay). The class given is cell-based. Particulars: added to Stage 3 medium (IL-10 20 ng/mL, IL-18 50 ng/mL); 4 hr co-culture, E:T 3:1 (FIG. 13A). The protocol: as §1, with “ng/mL), VEGF (50 ng/mL) and” for “ng/mL), VEGF (15 ng/mL) and”, “On Day 11 of co-culture,” for “On Day 14 of co-culture,”, “(BD, #555516), the percentage” for “(BD, #555516), and the percentage”, “flow cytometry. The cytotoxicity of Stage 3 iNK cells towards K562 cells was detected by CFSE/7AAD assay after 4 hr co-culture at E:T of 3:1.” for “flow cytometry.”

As to “IL-18: interleukin added to Stage 3 expansion and maturation medium”, in series [1], the “expansion fold of iNK cells” value is recorded as “improve the expansion fold”. In series [2], the “cytotoxicity of iNK cells towards K562 cells” value is recorded as “significantly improve”.
